Reference: patent US20220106328A1, “HETEROCYCLIC COMPOUNDS” (Hoffmann-La Roche Inc., priority 2019, published 2022)

What follows are compounds tested against T1, MAGL (Homo sapiens, UniProt Q99685) (assay: 2-AG assay (MAGL inhibitory activity; hydrolysis of 2-arachidonoylglycerol to arachidonic acid followed by mass spectrometry)). Conditions: 8 μM 2-arachidonoylglycerol, 15 min pre-incubation, 30 min incubation at rt, RapidFire MS read-out.
T1 sequence (Q99685 1-303): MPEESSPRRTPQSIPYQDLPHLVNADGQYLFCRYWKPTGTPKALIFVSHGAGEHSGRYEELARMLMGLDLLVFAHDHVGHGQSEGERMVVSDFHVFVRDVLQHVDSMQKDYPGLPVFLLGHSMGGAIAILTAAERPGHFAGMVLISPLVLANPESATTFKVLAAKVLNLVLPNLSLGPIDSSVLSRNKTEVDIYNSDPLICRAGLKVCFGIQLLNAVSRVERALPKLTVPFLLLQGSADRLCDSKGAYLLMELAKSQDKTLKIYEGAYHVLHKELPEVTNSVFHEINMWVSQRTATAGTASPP
Format: biochemical
Procedure: Compounds were profiled for MAGL inhibitory activity by determining the enzymatic activity by following the hydrolysis of the natural substrate 2-arachidonoylglycerol resulting in arachidonic acid, which can be followed by mass spectrometry. This assay is hereinafter abbreviated “2-AG assay”.
A C18 SPE cartridge (G9205A) was used in an ACN/water liquid setup. […] The activity of the compounds was calculated based on the ratio of intensities [arachidonic acid/d8-arachidonic acid].

IC50	SMILES
2010 nM	O=C(N1CC(OCc2ccc(C(F)(F)F)cc2F)C1)N1CC[C@H]2OCCN[C@@H]2C1 (racemic) [Example 31, [3-[[2-Fluoro-4-(trifluoromethyl)phenyl]methoxy]azetidin-1-yl]-[rac-(4aR,8aR)-2,3,4,4a,5,7,8,8a-octahydropyrido[4,3-b][1,4]oxazin-6-yl]methanone]
93 nM	O=C1CO[C@@H]2CCN(C(=O)N3CC(c4ccc(-c5ccc(F)cc5F)cc4)C3)C[C@H]2N1 (single isomer, unassigned) [Example 13, (+)- or (−)-trans-6-[3-[4-(2,4-Difluorophenyl)phenyl]azetidine-1-carbonyl]-4,4a,5,7,8,8a-hexahydropyrido[4,3-b][1,4]oxazin-3-one]
28 nM	O=C1CO[C@H]2CCN(C(=O)N3CC(c4ccc(-c5ccc(F)cc5F)cc4)C3)C[C@@H]2N1 (single isomer, unassigned) [Example 14, (−)- or (+)-trans-6-[3-[4-(2,4-Difluorophenyl)phenyl]azetidine-1-carbonyl]-4,4a,5,7,8,8a-hexahydropyrido[4,3-b][1,4]oxazin-3-one]
357 nM	O=C1CO[C@@H]2CCN(C(=O)N3CC(c4ccc(CC(F)(F)F)cc4)C3)C[C@H]2N1 (single isomer, unassigned) [Example 15, (+)- or (−)-trans-6-[3-[4-(2,2,2-Trifluoroethyl)phenyl]azetidine-1-carbonyl]-4,4a,5,7,8,8a-hexahydropyrido[4,3-b][1,4]oxazin-3-one]
58 nM	O=C1CO[C@H]2CCN(C(=O)N3CC(c4ccc(CC(F)(F)F)cc4)C3)C[C@@H]2N1 (single isomer, unassigned) [Example 16, (−)- or (+)-trans-6-[3-[4-(2,2,2-Trifluoroethyl)phenyl]azetidine-1-carbonyl]-4,4a,5,7,8,8a-hexahydropyrido[4,3-b][1,4]oxazin-3-one]
24 nM	O=C1CO[C@@H]2CCN(C(=O)N3CC4(CC(Cc5ccc(F)cc5F)C4)C3)C[C@H]2N1 (single isomer, unassigned) [Example 17, (+)- or (−)-trans-6-[6-[(2,4-Difluorophenyl)methyl]-2-azaspiro[3.3]heptane-2-carbonyl]-4,4a,5,7,8,8a-hexahydropyrido[4,3-b][1,4]oxazin-3-one]
12 nM	O=C1CO[C@H]2CCN(C(=O)N3CC4(CC(Cc5ccc(F)cc5F)C4)C3)C[C@@H]2N1 (single isomer, unassigned) [Example 18, (−)- or (+)-trans-6-[6-[(2,4-Difluorophenyl)methyl]-2-azaspiro[3.3]heptane-2-carbonyl]-4,4a,5,7,8,8a-hexahydropyrido[4,3-b][1,4]oxazin-3-one]
32 nM	O=C1CO[C@H]2CCN(C(=O)N3CC(c4ccc(Oc5ccccc5Cl)nc4)C3)C[C@@H]2N1 (single isomer, unassigned) [Example 19, (−)- or (+)-trans-6-[3-[6-(2-Chlorophenoxy)-3-pyridyl]azetidine-1-carbonyl]-4,4a,5,7,8,8a-hexahydropyrido[4,3-b][1,4]oxazin-3-one]
220 nM	O=C1CO[C@@H]2CCN(C(=O)N3CC(OCc4ccc(C(F)(F)F)cc4Cl)C3)C[C@H]2N1 (single isomer, unassigned) [Example 20, (+)- or (−)-trans-6-[3-[[2-Chloro-4-(trifluoromethyl)phenyl]methoxy]azetidine-1-carbonyl]-4,4a,5,7,8,8a-hexahydropyrido[4,3-b][1,4]oxazin-3-one]
78 nM	O=C1CO[C@H]2CCN(C(=O)N3CC(OCc4ccc(C(F)(F)F)cc4Cl)C3)C[C@@H]2N1 (single isomer, unassigned) [Example 21, (−)- or (+)-trans-6-[3-[[2-Chloro-4-(trifluoromethyl)phenyl]methoxy]azetidine-1-carbonyl]-4,4a,5,7,8,8a-hexahydropyrido[4,3-b][1,4]oxazin-3-one]
920 nM	O=C1CO[C@@H]2CCN(C(=O)N3CC(OCc4ccc(OC(F)(F)F)cc4)C3)C[C@H]2N1 (single isomer, unassigned) [Example 22, (+)- or (−)-trans-6-[3-[[4-(Trifluoromethoxy)phenyl]methoxy]azetidine-1-carbonyl]-4,4a,5,7,8,8a-hexahydropyrido[4,3-b][1,4]oxazin-3-one]
411 nM	O=C1CO[C@H]2CCN(C(=O)N3CC(OCc4ccc(OC(F)(F)F)cc4)C3)C[C@@H]2N1 (single isomer, unassigned) [Example 23, (−)- or (+)-trans-6-[3-[[4-(Trifluoromethoxy)phenyl]methoxy]azetidine-1-carbonyl]-4,4a,5,7,8,8a-hexahydropyrido[4,3-b][1,4]oxazin-3-one]
208 nM	O=C1CO[C@@H]2CCN(C(=O)N3CCC(C(c4ccc(F)cc4)c4ccc(F)cc4)CC3)C[C@H]2N1 (single isomer, unassigned) [Example 24, (+)- or (−)-trans-6-[4-[Bis(4-fluorophenyl)methyl]piperidine-1-carbonyl]-4,4a,5,7,8,8a-hexahydropyrido[4,3-b][1,4]oxazin-3-one]
5 nM	O=C1CO[C@H]2CCN(C(=O)N3CCC(C(c4ccc(F)cc4)c4ccc(F)cc4)CC3)C[C@@H]2N1 (single isomer, unassigned) [Example 25, (−)- or (+)-trans-6-[4-[Bis(4-fluorophenyl)methyl]piperidine-1-carbonyl]-4,4a,5,7,8,8a-hexahydropyrido[4,3-b][1,4]oxazin-3-one]

The next lines start with the compound.

SMILES	IC50
CC(C)(C)c1ccc(C2CN(C(=O)N3CCC4OCC(=O)NC4C3)C2)cc1 (single isomer, unassigned) [Example 1, (+)- or (−)-trans-6-[3-(4-tert-Butylphenyl)azetidine-1-carbonyl]-4,4a,5,7,8,8a-hexahydropyrido[4,3-b][1,4]oxazin-3-one]	235 nM
CC(C)(C)c1ccc(C2CN(C(=O)N3CCC4OCC(=O)NC4C3)C2)cc1 (single isomer, unassigned) [Example 2, (−)- or (+)-trans-6-[3-(4-tert-Butylphenyl)azetidine-1-carbonyl]-4,4a,5,7,8,8a-hexahydropyrido[4,3-b][1,4]oxazin-3-one]	39 nM
O=C1COC2CCN(C(=O)N3CC(c4ccc(C5(C(F)(F)F)CC5)cc4)C3)CC2N1 (single isomer, unassigned) [Example 3, (+)- or (−)-trans-6-[3-[4-[1-(Trifluoromethyl)cyclopropyl]phenyl]azetidine-1-carbonyl]-4,4a,5,7,8,8a-hexahydropyrido[4,3-b][1,4]oxazin-3-one]	95 nM
O=C1COC2CCN(C(=O)N3CC(c4ccc(C5(C(F)(F)F)CC5)cc4)C3)CC2N1 (single isomer, unassigned) [Example 4, (−)- or (+)-trans-6-[3-[4-[1-(Trifluoromethyl)cyclopropyl]phenyl]azetidine-1-carbonyl]-4,4a,5,7,8,8a-hexahydropyrido[4,3-b][1,4]oxazin-3-one]	15 nM
O=C1COC2CCN(C(=O)N3CC(OCc4ccc(C(F)(F)F)cc4F)C3)CC2N1 (single isomer, unassigned) [Example 5, (+)- or (−)-trans-6-[3-[[2-Fluoro-4-(trifluoromethyl)phenyl]methoxy]azetidine-1-carbonyl]-4,4a,5,7,8,8a-hexahydropyrido[4,3-b][1,4]oxazin-3-one]	327 nM
O=C1COC2CCN(C(=O)N3CC(OCc4ccc(C(F)(F)F)cc4F)C3)CC2N1 (single isomer, unassigned) [Example 6, (−)- or (+)-trans-6-[3-[[2-Fluoro-4-(trifluoromethyl)phenyl]methoxy]azetidine-1-carbonyl]-4,4a,5,7,8,8a-hexahydropyrido[4,3-b][1,4]oxazin-3-one]	143 nM
O=C1CO[C@@H]2CCN(C(=O)N3CC(c4ccc(OC(F)(F)F)c(Cl)c4)C3)C[C@H]2N1 (single isomer, unassigned) [Example 7, (+)- or (−)-trans-6-[3-[3-Chloro-4-(trifluoromethoxy)phenyl]azetidine-1-carbonyl]-4,4a,5,7,8,8a-hexahydropyrido[4,3-b][1,4]oxazin-3-one]	424 nM
O=C1CO[C@H]2CCN(C(=O)N3CC(c4ccc(OC(F)(F)F)c(Cl)c4)C3)C[C@@H]2N1 (single isomer, unassigned) [Example 8, (−)- or (+)-trans-6-[3-[3-Chloro-4-(trifluoromethoxy)phenyl]azetidine-1-carbonyl]-4,4a,5,7,8,8a-hexahydropyrido[4,3-b][1,4]oxazin-3-one]	56 nM
O=C1CO[C@@H]2CCN(C(=O)N3CC(c4ccc(Oc5ccccc5)cc4)C3)C[C@H]2N1 (single isomer, unassigned) [Example 11, (+)- or (−)-trans-6-[3-(4-Phenoxyphenyl)azetidine-1-carbonyl]-4,4a,5,7,8,8a-hexahydropyrido[4,3-b][1,4]oxazin-3-one]	47 nM
O=C1CO[C@H]2CCN(C(=O)N3CC(c4ccc(Oc5ccccc5)cc4)C3)C[C@@H]2N1 (single isomer, unassigned) [Example 12, (−)- or (+)-trans-6-[3-(4-Phenoxyphenyl)azetidine-1-carbonyl]-4,4a,5,7,8,8a-hexahydropyrido[4,3-b][1,4]oxazin-3-one]	7 nM
